# Where two headings read alike, the source gives them in different places.
# Assays:
# [1] = tested on: red blood cells (RBCs); conditions: blocked by non-radioactive standard 4-FBz-T140 peptide; ref [31]; cited from earlier work
# Description: (§1) However, due to the complex and time-consuming radiolabeling procedure, they developed another analog, (Al[^18F]NOTA-T140), using the Al-F me ...
# [2] = tested on: CXCR4 positive tumors; conditions: PET, xenograft mouse model, RBC binding blocked with non-radioactive 4-FBz-T140, ref [31]; cited from earlier work
# Description: as §1
# [3] = tested on: CXCR4; set-up: method as in earlier work; conditions: previously reported, ref [24],[31],[48],[49],[50],[51] (collective), cited from earlier work
# [4] = tested on: HIV; conditions: 4-fluorobenzoyl group introduced on T140-based pharmacophore; ref [30]; cited from earlier work
# Description: Numerous truncated peptide analogs that mimic the function of CXCL12 have been reported. Tamamura et al. described the synthesis of novel 14-amino acid peptide inhibitors (T134, T140) based on the structure of their previously reported 18-amino acid peptide, T22, for inhibitory activity against HIV-1 entry. […] However, due to the complex and time-consuming radiolabeling procedure, they developed another analog, (Al[^18F]NOTA-T140), using the Al-F me ...
# [5] = Hydrolysis of 6-[^18F]SFPy to 6-[^18F]fluoronicotinic acid (HPLC); format: physicochemical; conditions: room temperature, 4h post radiolabeling; HPLC method B (Vydac C-4), radio detector
# Protocol: Figure 2 HPLC analysis (method B) of 6-[^18F]SFPy (A) Crude reaction mixture; (B) Crude reaction mixture co-injected with the non-radioactive standard; (C) Pure; (D) Pure co-injected with the non-radioactive standard; (E) After 4h of labeling at room temperature co-injected with the non-radioactive standard, 6-fluoronicotinic acid. Solid line, in-line radio detector; dotted line, UV detector at 254 nm. Retention time (min): 6-[^18F]SFPy, 4.0; compound 4, 4.1; 6-[^18F]fluoronicotinic acid, 2.8.
# Method B (HPLC conditions for analysis): Vydac C-4 (2) column (4.6 × 150 mm, 5 µ), mobile phase: 15–22% B in 10 min; B = acetonitrile (0.1% TFA), A = Water (0.1% TFA), flow rate of 1 mL/min; tR = ~8 min.
molecule,measurement,setting,value
4-[^18F]fluorobenzoyl-TN14003 [4-[^18F]FBz-T140],binding to red blood cells (in words),[1],elevated binding
same,tumor-to-background ratios (in words),[2],high tumor-to-background ratios
4-fluorobenzoyl-TN14003 [4-FBz-T140],IC50,[3]; first of two values printed for this analog,0.99 nM
same,IC50,[3]; second of two values printed for this analog,1.75 nM
same,anti-HIV activity (in words),[4],enhancement of anti-HIV activity
O=C(ON1C(=O)CCC1=O)c1ccc([18F])nc1 [6-[^18F]SFPy],conversion to 6-[^18F]fluoronicotinic acid (slow hydrolysis),[5],15%

# — publication PMC7504725, “Automated Synthesis of Fluorine-18 Labeled CXCR4 Ligand via the Conjugation with Nicotinic Acid N-Hydroxysuccinimide Ester (6-[^18F]SFPy)” (Molecules, 2020)
